# Measurements: patent US20040191842A1, “Chemopreventive and therapeutic aspects of polyphenolic compositions and assays” (Medical College of Georgia Research Institute, Inc., priority 2002, published 2004)
# “Also recorded” adds a separate entry of the source.
# What was measured:
# Apaf-1 = assay: Western blot of Apaf-1 in mammary epithelial cells; assay type: cell-based, human; conditions: 15 μM EGCG, 24 h
# Experimental: Western blot analysis. The keratinocytes and the mammary epithelial cells were placed in KGM-2 and MEGM, respectively, overnight prior to treatment. Cells were lysed, after 24-hour treatment, in RIPA buffer (1% NP-40, 1% sodium deoxycholate, 0.1% SDS, 0.15 M NaCl, 0.01 M sodium phosphate, pH 7.2, and 1% Trasylol) containing proteinase inhibitors (1 mM PMSF, 1 μg/ml each of aprotinin, leupeptin, and pepstatin). The concentration of protein in each sample was determined using the BioRad DC Protein Assay and spectrophotometry. 50 μg of protein from each sample and a BioRad molecular weight standard marker were run on a 10% SDS-PAGE, followed by transfer to nitrocellulose membranes. Nonspecific binding to the membranes was blocked with 10% nonfat milk. Primary polyclonal (rabbit) antibodies and a horseradish peroxidase-conjugated goat anti-rabbit secondary antibody were used in conjunction with the ECL Chemiluminescence Kit (Amersham Pharmacia Biotech, New Jersey) and membranes were exposed to radiographic films for detection. Western blots were digitized for comparison of the intensity for each band using the ImageTool image analysis software program (University of Texas Health Science Center, San Antonio, Tex.). The integrated density of each band was measured using identical 1480 pixel areas of each Apfa-1 or Actin band at a scale of densities from 0 to 255. […]
# caspase 3 [1] = assay: Caspase 3 activity assay, normal human epidermal keratinocytes; assay type: cell-based; conditions: EGCG 0 to 200 μM or 0.2 mg/ml GTPPs, 24 h
# Experimental: Caspase 3 activity assay. The Caspase 3 Apoptosis Detection Kit was purchased from Santa Cruz Biotech. Inc. In a 24 well tissue culture plate, 10^5 cells/well of control or treated cells in triplicates were plated. […] To each well, 100 μl of 2×reaction buffer was added with 10 mM DTT. Finally, 5 μl of DEVD-AFC substrate was added to each well containing cell lysates. The reaction mixtures were incubated for 1 hour at 37° C. The caspase 3 activity in each well was measured using a fluorescence plate reader set for 405 nanometer (nm) excitation and 505 nm emission.
# (§1) Caspase 3 activity assay. The Caspase 3 Apoptosis Detection Kit was purchased from Santa Cruz Biotech. Inc. In a 24 well tissue culture plate, 10^5 cells/well of cells in triplicates were plated. […] To each well, 100 μl of 2×reaction buffer was added with […]. Finally, 5 μl of DEVD-AFC substrate was added to each well containing cell lysates. The reaction mixtures were incubated for 1 hour at 37° C. The caspase 3 activity in each well was measured using a fluorescence microplate reader set for 405 nm excitation and 505 nm emission.
# Caspase 3 activity assay. […] The reaction mixtures were incubated for 1 hour at 37° C., and caspase 3 activity in each well was measured using a fluorescence micro-plate reader at a wavelength of 405 nm for excitation and 505 nm for emission.
# caspase 3 [2] = assay: Caspase 3 activity assay, caspase 3 null MCF7 cells; assay type: cell-based, human; conditions: increasing EGCG or 0.2 mg/ml GTPPs, 24 h
# Experimental: as §1
# MCF7 cells = assay: Cell growth assay, MCF7 cells; assay type: cell-based, human; conditions: 50 μM EGCG, 96 hours
# Experimental: Cell growth assay. MCF7 cells were seeded (5×10^4) in 25 cm^2 tissue culture flask for 24 hours prior to EGCG or GTPPs incubation. Cells from each flask were trypsinized and counted at each time point on a hemacytometer.
# [3] = system: normal human primary epidermal keratinocytes; assay: Immunocytochemistry of differentiation markers in keratinocytes; assay type: cell-based; conditions: 50-100 μM EGCG, 24 hours
# Experimental: Immunocytochemistry. Normal human keratinocytes were seeded in 8-well chamber slides (Nagle Nunc International, Naperville, Ill.) 12 hours prior to EGCG treatment. At the end of a 24-hour treatment, the slides were washed with PBS and fixed in a cold 4% paraformaldehyde solution for 10 minutes. […] The primary antibodies, rabbit-anti-human p57 polyclonal antibody C-19, rabbit anti-human keratin 1, and filaggrin antibodies were applied for 1 hour at 37° C. at the dilutions recommended by the manufacturers. The streptavidin detection technique (Biogenex, USA) was used with 3-amino-9-ethylcarbazole as chromogen. Negative control sections consisted of tissues treated with 1% diluted normal goat serum instead of primary antibody. Mayer's hematoxylin was used as a counter-stain.
# [4] = system: normal human primary epidermal keratinocytes; assay: BrdU incorporation assay, exponentially growing keratinocytes; assay type: cell-based; conditions: increasing EGCG or 0.2 mg/ml GTP
# From the text: Analysis of DNA synthesis using the BrdU incorporation method. The BrdU cell proliferation kit was purchased from Oncogene Research Products (Boston, Mass.). […] Experiments were repeated three times in triplicate for each experiment.
# caspase 14 = assay: Apoptosis macroarray, caspase 14 mRNA in NHEK; assay type: cell-based, human
# Experimental: (§2) To identify additional factors those suppress EGCG -induced apoptosis and facilitate cell differentiation in NHEK, exponentially growing NHEK (Cambrex, Baltimore, Md.) were exposed to 100 μM EGCG for 0, 2, 6 and 24 hours, prior to total RNA isolation using the Qiagen RNeasy mini kit (Valencia, Calif.), which was followed by RT-PCR labeling and hybridization with the Human Apoptosis Macroarray membrane (Sigma-Genosys, The Woodlands, Tex.). Total cell lysates also were collected following a variety of EGCG treatments. The protein levels for caspase 14 and p21 were determined by immuno-blotting using antibodies specific for caspase 14 and p21 (Santa Cruz Biotechnology, Santa Cruz, Calif.).
# (§3) Normal human epidermal keratinocytes (NHEK; Cambrex), and oral squamous cell carcinoma (OSC2) cells, originally from gingival tissue, were compared. Exponentially growing cells were exposed to 50 or 100 μM EGCG for 0 hours, 2 hours, 6 hours or 24 hours. Cells were harvested for total RNA, which was examined by apoptosis macroarrays (Sigma Genosys), followed by phosphorimagery and data analysis (GeneSpring). Protein production of expressed genes was confirmed by Western blotting of whole cell lysates.
# p21 = assay: Immunoblot of p21 protein in NHEK; assay type: cell-based, human; conditions: EGCG 100 μM or higher, beyond 24 hours
# Experimental: as §2
# caspase 14 and p21 = assay: Caspase 14 and p21 expression in OSC2 cells; assay type: cell-based, human; conditions: EGCG
# Experimental: as §2, §3
structure (smiles),measurement,setting,value
"O=C(O[C@@H]1Cc2c(O)cc(O)cc2O[C@@H]1c1cc(O)c(O)c(O)c1)c1cc(O)c(O)c(O)c1 [EGCG, (−)-epigallocatechin-3-gallate]",Apaf-1 protein level increase above control (densitometry),Apaf-1,47%
same,caspase 3 activity,caspase 3 [1],only exhibited basal levels of caspase 3 activities; also recorded: not significantly affected
same,caspase 3 activity,caspase 3 [2],did not show caspase 3 activity
same,cell number compared to untreated cultures,MCF7 cells,only an insignificant decrease in cell number
same,"differentiation (p57/KIP2, keratin 1, filaggrin)",[3],underwent differentiation in 24 hours
same,BrdU incorporation,[4],slight increase of BrdU incorporation
same,caspase 14 gene expression upregulated,caspase 14; 100 μM EGCG (Example 10),at least 2 fold
same,caspase 14 mRNA expression above control,"caspase 14; 100 μM EGCG, 24 hours",approximately three
same,"p21 protein level, of controls",p21,below 50%
same,caspase 14 and p21 levels,caspase 14 and p21; identical conditions to NHEK,failed to show increased caspase 14 or decreased p21
same,p21 mRNA elevated,caspase 14 and p21; within 2 hours,3 fold
